{"source": "patent US20160067221A1", "about": "“USE OF ERGOTHIONEINE FOR INDUCING ACTIVITY OF NRF2 IN CELL” (China Medical University, priority 2014, published 2016)", "format_in_all_cases": "cell-based, human", "key": {"Nrf2 [1]": {"tested_on": "Nrf2", "test": "Nrf2 nuclear translocation (Western blot of cytosolic and nuclear Nrf2, immunofluorescence staining)", "conditions": "for nuclear Nrf2 protein expression / cytosolic Nrf2 protein expression: Western blot", "procedure": "This example next investigates the effect of the ergothioneine on the Nrf2 nuclear translocation. The HaCat cells are pretreated with the ergothioneine for 24 hours, and then exposed to 15 J/cm^2 UVA for 1 hour. The protein expressions of a cytosolic Nrf2 and a nuclear Nrf2 are detected by the Western blot analysis, and a nuclear import of Nrf2 of the HaCaT cell is monitored by an immunofluorescence staining.\nFIG. 9 illustrates the effect of the ergothioneine on the protein expressions of the cytosolic Nrf2 and the nuclear Nrf2 of the UVA-irradiated HaCaT cells. FIG. 9-(A) represents the Western blot analysis result. FIG. 9-(B) is the fluorescent photomicrograph of the immunofluorescence staining (200× magnifications). […] In FIG. 9-(B), the nucleus is labelled with 4′,6-diamidino-2-phenylindole (DAPI), and the Nrf2 is labelled with green fluorescence to measure the expression and a localization of the Nrf2."}, "HaCaT cells": {"tested_on": "HaCaT cells", "test": "Cell viability by MTT assay, with or without UVA irradiation", "procedure": "To examine a safety of the ergothioneine and a safe used dose of the ergothioneine to normal cells, HaCaT cells, human keratinocyte cell lines, are treated with different dose of the ergothioneine and then detected a cell viability.\nThe HaCaT cells are maintained at 37° C. in a humidified atmosphere of 5% CO2 in a culture medium (Dulbecco's modified Eagle medium/high glucose (DMEM) supplemented with 10% heat-inactivated fetal bovine serum (FBS)).\nThe cell viability is monitored using a method of […] (MTT assay). The HaCaT cells are seeded in a 12-well plate with 1×10^5 cells/well and then maintained at 37° C. in a humidified atmosphere of 5% CO2 untill the HaCaT cells are adhered in the next day. The HaCaT cells are subsequently incubated with or without the ergothioneine, and then maintained at 37° C. in a humidified atmosphere of 5% CO2 for 24 hours, wherein the concentration of the ergothioneine is 125 nM, 250 nM and 500 nM, respectively. Next, the HaCaT cells are washed with phosphate buffered saline (PBS) three times, and then irradiated with the UVA (15 J/cm^2). After the UVA irradiation, the PBS is replaced with the culture medium to culture the HaCaT cells for 4 hours. In next step, the culture medium is removed, the HaCaT cells are washed with PBS thrice, and then 450 μL of 1×MTT agent is added in each well to react at 37° C. in a humidified atmosphere of 5% CO2 for 2 hours. A culture supernatant is removed and re-suspended with 400 μL of isopropanol to dissolve MTT formazan. 200 μL of the supernatant is taken from the well and then added into a 96-well microplate to measure an absorbance at 570 nm.\nThe cell viability of the HaCaT cells is detected by the MTT assay."}, "[2]": {"tested_on": "UVA-irradiated HaCaT cells", "test": "Total glutathione (GSH) content, DTNB method", "conditions": "125-500 nM 24 hours prior to 15 J/cm^2 UVA, 4 hours; dose-dependent", "from_the_text": "A glutathione (GSH), the antioxidant in animal cells, can protect DNA against external oxidative stresses. Given that the ergothioneine treatment to the HaCaT cells can reduce the DNA damage of the HaCaT cells; this example next investigates the UVA-induced oxidative damage by determining a total GSH content of the HaCaT cells treated with the ergothioneine or the UVA irradiation. A glutathione disulfide (GSSG) is an oxidized form of the GSH, and the GSSG can be reduced to the GSH by a glutathione reductase. Antioxidant enzymes, such as glutathione peroxidases and peroxiredoxins, generate glutathione disulfide during the reduction of peroxides such as hydrogen peroxide (H2O2) and organic hydroperoxides (ROOH). The GSH generates a yellow-colored 5-thio-2-nitrobenzoic acid (TNB) and a […] GSTNB (between GSH and TNB) during the reaction of 5,5′-dithiobis-(2-nitrobenzoic acid) (DTNB), wherein the content of (GSSG+GSH) is the rate determining factor of color production in aforementioned reactions. The rate of the yellow-colored TNB production is directly proportional to the concentration of (GSSG+GSH) in a sample. Thus, measurement of the absorbance of the TNB provides an accurate estimation of the amount of total glutathione (GSSG+GSH) in the sample. […] The net absorbance at 405 nm yields an accurate amount of the total glutathione in the sample."}, "Nrf2 [3]": {"tested_on": "Nrf2", "test": "Western blot in Nrf2 knockdown HaCaT cells (siRNA transfection)", "conditions": "Nrf2 siRNA transfected cells, 500 nM ergothioneine 24 hours", "from_the_text": "The Nrf2 is an important transcription factor, the downstream antioxidant enzymes are regulated by the Nrf2 transcription gene. To examine protective effects of the ergothioneine on the HaCaT cells indeed through the Nrf2 activation, we developed an Nrf2 gene knockdown model in the HaCaT cells by a siRNA transfection in this example. Then, the expression of the downstream antioxidant gene is observed to investigate whether the protective properties of the ergothioneine will be affected.\nThe siRNA transfection includes steps as follows. The HaCaT cells are seeded in a 6-well plate with 4×10^5 cells/well and then maintained at 37° C. in the humidified atmosphere of 5% CO2 untill the time of the transfection. The day after reaching 40-60% confluence, the culture medium is replaced with 1 mL of FBS-free and antibiotic-free culture medium in each well, and the HaCaT cells are transfected with a siNrf2 or a control siRNA by using Lipofectamine 2000 (Invitrogen, U.S.A.) for 4-6 hours. After the incubation for 4-6 hours, the HaCaT cells are washed with the culture medium supplemented with 10% FBS 2-3 times, and then cultured in the culture medium supplemented with 10% FBS for 12-16 hours.\nAfter the siRNA transfection, the HaCaT cells are treated with 500 nM ergothioneine for 24 hours. After the ergothioneine treatment, the HaCaT cells are subjected to analyses of the protein express on of the Nrf2 in 1 hour post-treatment and the protein expressions of HO-1 γ-GCLC and NQO-1 in 4 hours post-treatment by the Western blot analysis. FIG. 13-(A) illustrates the effect of the ergothioneine on protein expression of the Nrf2 in Nrf2 knockdown HaCaT cells by using the siRNA transfection."}, "[4]": {"conditions": "ergothioneine alone, vs control"}}}
{"smiles": "C[N+](C)(C)[C@@H](Cc1c[nH]c(=S)[nH]1)C(=O)[O-]", "note": "[ergothioneine, 2-mercapto histidine trimethylbetain]", "values": [{"measurement": "nuclear Nrf2 protein expression", "setting": "Nrf2 [1]; ergothioneine 24 hours prior to 15 J/cm^2 UVA, 1 hour", "value": "significantly increased"}, {"measurement": "fluorescence intensity of the Nrf2", "setting": "Nrf2 [1]; ergothioneine alone, immunofluorescence staining", "value": "slightly increased"}, {"measurement": "cytosolic Nrf2 protein expression", "setting": "Nrf2 [1]; [4]", "value": "significantly decreased"}, {"measurement": "nuclear Nrf2 protein expression", "setting": "Nrf2 [1]; [4]", "value": "slightly increased"}, {"measurement": "fluorescence intensity of the nuclear Nrf2", "setting": "Nrf2 [1]; ergothioneine prior to UVA irradiation, immunofluorescence staining", "value": "pronounced fluorescence intensity of the nuclear Nrf2"}, {"measurement": "cytosolic Nrf2 protein expression", "setting": "Nrf2 [1]; ergothioneine prior to UVA irradiation, vs control", "value": "significantly decreased"}, {"measurement": "cell death at respective dose of UVA irradiation", "setting": "HaCaT cells; 500 nM for 2 hours, UVA 5-15 J/cm^2", "value": "significantly attenuated"}, {"measurement": "cytotoxic effects (cell viability)", "setting": "HaCaT cells; HaCaT cells, 125-500 nM, 24 hours", "value": "does not cause any cytotoxic effects"}, {"measurement": "cell viability", "setting": "HaCaT cells; pretreated with 500 nM, then UVA 15 J/cm^2, cultured 4 hours", "value": 75.5, "unit": "%"}, {"measurement": "UVA-induced cell death", "setting": "HaCaT cells; pretreatment 125-500 nM, UVA 15 J/cm^2", "value": "attenuates a UVA-induced cell death in a dose-dependent manner"}, {"measurement": "total glutathione level", "setting": "[2]", "value": "increased"}, {"measurement": "expression of HO-1", "setting": "Nrf2 [3]", "value": "not shown the increased expression"}, {"measurement": "expression of NQO-1", "setting": "Nrf2 [3]", "value": "not shown the increased expression"}, {"measurement": "expression of γ-GCLC", "setting": "Nrf2 [3]", "value": "not shown the increased expression"}]}
